What was measured:
Format in all cases: in vivo
black-grass [1] = experiment: Test Example 3: weedkilling efficacy through soil treatment; H: black-grass; conditions: treatment dosage 1250 g/ha
Method in brief: (§1)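 Crop and weed responses were judged three weeks after a uniform surface spray of the water-diluted emulsion at the given g/ha rate. Seeds sat beneath about 1.5 cm of sterilized diluvial soil, and boxes stood in a greenhouse at 25 to 30° C.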

oval-leafed pondweed [2] = experiment: Test Example 1: weedkilling efficacy, preemergent weed treatment in the submerged state; C: oval-leafed pondweed; conditions: treatment dosage 1000 g/ha
Method in brief: (§2)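 Pots of alluvial soil flooded 4 cm deep, sown with barnyard grass, bulrush and oval-leafed pondweed and transplanted with 2.5-leaf rice. Emulsified compound applied to the water surface on sowing day at stated g/ha; greenhouse 25–30 °C, effects assessed 3 weeks after treatment.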

oval-leafed pondweed [3] = experiment: Test Example 2: weedkilling efficacy, growth period weed treatment in the submerged state; C: oval-leafed pondweed; conditions: treatment dosage 1000 g/ha
Method in brief: (§3)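 Barnyard grass, bulrush and oval-leafed pondweed sown in alluvial soil under 4 cm flooding, greenhouse 25 to 30° C. At 1-2 leaf stage, water-diluted emulsion applied to the water surface at stated g/ha dosages; effects scored 3 weeks later.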

wild oat [4] = experiment: Test Example 3: weedkilling efficacy through soil treatment; G: wild oat; conditions: treatment dosage 1250 g/ha
Method in brief: as §1

green foxtail [5] = experiment: Test Example 3: weedkilling efficacy through soil treatment; E: green foxtail; conditions: treatment dosage 1250 g/ha
Method in brief: as §1

crabgrass [6] = experiment: Test Example 3: weedkilling efficacy through soil treatment; D: crabgrass; conditions: treatment dosage 1250 g/ha
Method in brief: as §1

soybean [7] = experiment: Test Example 4: foliar treatment, effect on crop; d: soybean; conditions: treatment dosage 1250 g/ha
Method in brief: (§4)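 Seeds are spot-sown into sterilized diluvial soil and covered with about 1.5 cm of soil. After 14 days' greenhouse growth at 25 to 30° C, plants are sprayed on stems and leaves with diluted emulsion at the stated g/ha rate, then scored at 3 weeks.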

corn [8] = experiment: Test Example 4: foliar treatment, effect on crop; c: corn; conditions: treatment dosage 1250 g/ha
Method in brief: as §4

wild oat [9] = experiment: Test Example 4: weedkilling efficacy by foliar treatment; G: wild oat; conditions: treatment dosage 1250 g/ha
Method in brief: as §4

wheat [10] = experiment: Test Example 4: foliar treatment, effect on crop; e: wheat; conditions: treatment dosage 1250 g/ha
Method in brief: as §4

Indian mallow [11] = experiment: Test Example 3: weedkilling efficacy through soil treatment; K: Indian mallow; conditions: treatment dosage 1250 g/ha
Method in brief: as §1

bulrush [12] = experiment: Test Example 1: weedkilling efficacy, preemergent weed treatment in the submerged state; B: bulrush; conditions: treatment dosage 1000 g/ha
Method in brief: as §2

crabgrass [13] = experiment: Test Example 4: weedkilling efficacy by foliar treatment; D: crabgrass; conditions: treatment dosage 1250 g/ha
Method in brief: as §4

green foxtail [14] = experiment: Test Example 4: weedkilling efficacy by foliar treatment; E: green foxtail; conditions: treatment dosage 1250 g/ha
Method in brief: as §4

redroot pigweed [15] = experiment: Test Example 3: weedkilling efficacy through soil treatment; L: redroot pigweed; conditions: treatment dosage 1250 g/ha
Method in brief: as §1

bulrush [16] = experiment: Test Example 2: weedkilling efficacy, growth period weed treatment in the submerged state; B: bulrush; conditions: treatment dosage 1000 g/ha
Method in brief: as §3

beet [17] = experiment: Test Example 3: soil treatment, effect on crop; f: beet; conditions: treatment dosage 1250 g/ha
Method in brief: as §1

chickweed [18] = experiment: Test Example 3: weedkilling efficacy through soil treatment; N: chickweed; conditions: treatment dosage 1250 g/ha
Method in brief: as §1

fig-leafed goosefoot [19] = experiment: Test Example 3: weedkilling efficacy through soil treatment; M: fig-leafed goosefoot; conditions: treatment dosage 1250 g/ha
Method in brief: as §1

soybean [20] = experiment: Test Example 3: soil treatment, effect on crop; d: soybean; conditions: treatment dosage 1250 g/ha
Method in brief: as §1

wheat [21] = experiment: Test Example 3: soil treatment, effect on crop; e: wheat; conditions: treatment dosage 1250 g/ha
Method in brief: as §1

barnyard grass [22] = experiment: Test Example 2: weedkilling efficacy, growth period weed treatment in the submerged state; A: barnyard grass; conditions: treatment dosage 1000 g/ha
Method in brief: as §3

birds-eye speedwell [23] = experiment: Test Example 4: weedkilling efficacy by foliar treatment; p: birds-eye speedwell; conditions: treatment dosage 1250 g/ha
Method in brief: as §4

birds-eye speedwell [24] = experiment: Test Example 3: weedkilling efficacy through soil treatment; p: birds-eye speedwell; conditions: treatment dosage 1250 g/ha
Method in brief: as §1

catchweed [25] = experiment: Test Example 3: weedkilling efficacy through soil treatment; O: catchweed; conditions: treatment dosage 1250 g/ha
Method in brief: as §1

transplanted rice = experiment: Test Example 1: preemergent weed treatment in the submerged state, effect on crop; a: transplanted rice; conditions: treatment dosage 1000 g/ha
Method in brief: as §2

Italian ryegrass [26] = experiment: Test Example 4: weedkilling efficacy by foliar treatment; I: Italian ryegrass; conditions: treatment dosage 1250 g/ha
Method in brief: as §4

black-grass [27] = experiment: Test Example 4: weedkilling efficacy by foliar treatment; H: black-grass; conditions: treatment dosage 1250 g/ha
Method in brief: as §4

chickweed [28] = experiment: Test Example 4: weedkilling efficacy by foliar treatment; N: chickweed; conditions: treatment dosage 1250 g/ha
Method in brief: as §4

corn [29] = experiment: Test Example 3: soil treatment, effect on crop; c: corn; conditions: treatment dosage 1250 g/ha
Method in brief: as §1

catchweed [30] = experiment: Test Example 4: weedkilling efficacy by foliar treatment; O: catchweed; conditions: treatment dosage 1250 g/ha
Method in brief: as §4

directly sown rice [31] = experiment: Test Example 4: foliar treatment, effect on crop; b: directly sown rice; conditions: treatment dosage 1250 g/ha
Method in brief: as §4

directly sown rice [32] = experiment: Test Example 3: soil treatment, effect on crop; b: directly sown rice; conditions: treatment dosage 1250 g/ha
Method in brief: as §1

Italian ryegrass [33] = experiment: Test Example 3: weedkilling efficacy through soil treatment; I: Italian ryegrass; conditions: treatment dosage 1250 g/ha
Method in brief: as §1

barnyard grass [34] = experiment: Test Example 1: weedkilling efficacy, preemergent weed treatment in the submerged state; A: barnyard grass; conditions: treatment dosage 1000 g/ha
Method in brief: as §2

redroot pigweed [35] = experiment: Test Example 4: weedkilling efficacy by foliar treatment; L: redroot pigweed; conditions: treatment dosage 1250 g/ha
Method in brief: as §4

Indian mallow [36] = experiment: Test Example 4: weedkilling efficacy by foliar treatment; K: Indian mallow; conditions: treatment dosage 1250 g/ha
Method in brief: as §4

fig-leafed goosefoot [37] = experiment: Test Example 4: weedkilling efficacy by foliar treatment; M: fig-leafed goosefoot; conditions: treatment dosage 1250 g/ha
Method in brief: as §4

beet [38] = experiment: Test Example 4: foliar treatment, effect on crop; f: beet; conditions: treatment dosage 1250 g/ha
Method in brief: as §4

CC1=C(c2cccnc2Cl)C(=O)N(C(C)(C)C(=O)Nc2cccc(F)n2)CO1 [B-2-19]
H (black-grass) weedkilling efficacy grade (black-grass [1]): 5 (weed kill ratio 90% or more, (practically complete withering)) | C (oval-leafed pondweed) weedkilling efficacy grade (oval-leafed pondweed [2]): 4 (weed kill ratio 70% or more, less than 90%) | C (oval-leafed pondweed) weedkilling efficacy grade (oval-leafed pondweed [3]): 3 (weed kill ratio 40% or more, less than 70%) | G (wild oat) weedkilling efficacy grade (wild oat [4]): 5 (weed kill ratio 90% or more, (practically complete withering)) | E (green foxtail) weedkilling efficacy grade (green foxtail [5]): 5 (weed kill ratio 90% or more, (practically complete withering)) | D (crabgrass) weedkilling efficacy grade (crabgrass [6]): 5 (weed kill ratio 90% or more, (practically complete withering)) | d (soybean) effect on crop grade (soybean [7]): 1 (weed kill ratio 5% or more, less than 20%) | c (corn) effect on crop grade (corn [8]): 1 (weed kill ratio 5% or more, less than 20%) | G (wild oat) weedkilling efficacy grade (wild oat [9]): 3 (weed kill ratio 40% or more, less than 70%) | e (wheat) effect on crop grade (wheat [10]): 0 (weed kill ratio 5% or less (practically no effect)) | K (Indian mallow) weedkilling efficacy grade (Indian mallow [11]): 0 (weed kill ratio 5% or less (practically no effect)) | B (bulrush) weedkilling efficacy grade (bulrush [12]): 5 (weed kill ratio 90% or more, (practically complete withering)) | D (crabgrass) weedkilling efficacy grade (crabgrass [13]): 5 (weed kill ratio 90% or more, (practically complete withering)) | E (green foxtail) weedkilling efficacy grade (green foxtail [14]): 5 (weed kill ratio 90% or more, (practically complete withering)) | L (redroot pigweed) weedkilling efficacy grade (redroot pigweed [15]): 4 (weed kill ratio 70% or more, less than 90%) | B (bulrush) weedkilling efficacy grade (bulrush [16]): 5 (weed kill ratio 90% or more, (practically complete withering)) | f (beet) effect on crop grade (beet [17]): 4 (weed kill ratio 70% or more, less than 90%) | N (chickweed) weedkilling efficacy grade (chickweed [18]): 4 (weed kill ratio 70% or more, less than 90%) | M (fig-leafed goosefoot) weedkilling efficacy grade (fig-leafed goosefoot [19]): 5 (weed kill ratio 90% or more, (practically complete withering)) | d (soybean) effect on crop grade (soybean [20]): 0 (weed kill ratio 5% or less (practically no effect)) | e (wheat) effect on crop grade (wheat [21]): 0 (weed kill ratio 5% or less (practically no effect)) | A (barnyard grass) weedkilling efficacy grade (barnyard grass [22]): 2 (weed kill ratio 20% or more, less than 40%) | P (birds-eye speedwell) weedkilling efficacy grade (birds-eye speedwell [23]): 5 (weed kill ratio 90% or more, (practically complete withering)) | P (birds-eye speedwell) weedkilling efficacy grade (birds-eye speedwell [24]): 4 (weed kill ratio 70% or more, less than 90%) | O (catchweed) weedkilling efficacy grade (catchweed [25]): 0 (weed kill ratio 5% or less (practically no effect)) | a (transplanted rice) effect on crop grade (transplanted rice): 0 (weed kill ratio 5% or less (practically no effect)) | I (Italian ryegrass) weedkilling efficacy grade (Italian ryegrass [26]): 4 (weed kill ratio 70% or more, less than 90%) | H (black-grass) weedkilling efficacy grade (black-grass [27]): 5 (weed kill ratio 90% or more, (practically complete withering)) | N (chickweed) weedkilling efficacy grade (chickweed [28]): 3 (weed kill ratio 40% or more, less than 70%) | c (corn) effect on crop grade (corn [29]): 0 (weed kill ratio 5% or less (practically no effect)) | O (catchweed) weedkilling efficacy grade (catchweed [30]): 3 (weed kill ratio 40% or more, less than 70%) | b (directly sown rice) effect on crop grade (directly sown rice [31]): 4 (weed kill ratio 70% or more, less than 90%) | b (directly sown rice) effect on crop grade (directly sown rice [32]): 4 (weed kill ratio 70% or more, less than 90%) | I (Italian ryegrass) weedkilling efficacy grade (Italian ryegrass [33]): 5 (weed kill ratio 90% or more, (practically complete withering)) | A (barnyard grass) weedkilling efficacy grade (barnyard grass [34]): 5 (weed kill ratio 90% or more, (practically complete withering)) | L (redroot pigweed) weedkilling efficacy grade (redroot pigweed [35]): 3 (weed kill ratio 40% or more, less than 70%) | K (Indian mallow) weedkilling efficacy grade (Indian mallow [36]): 0 (weed kill ratio 5% or less (practically no effect)) | M (fig-leafed goosefoot) weedkilling efficacy grade (fig-leafed goosefoot [37]): 3 (weed kill ratio 40% or more, less than 70%) | f (beet) effect on crop grade (beet [38]): 3 (weed kill ratio 40% or more, less than 70%)

Reference: patent US9738634B2, “Heterocyclic amide compound and herbicide” (SYNGENTA PARTICIPATIONS AG, priority 2013, dated 2017)
